Measured values: PubChem BioAssay (NCI)
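Cultured in 96-well plates, cells were exposed to test compound for 48 hours across five concentrations. GI50 is the concentration that inhibits growth by half. Definition used: TGI = concentration required for complete inhibition of growth.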

Tests used:
Test in all cases: NCI tumour cell line growth inhibition, 48 h
[1] = system: DMS 273 small cell lung
[2] = system: LXFL 529 NSCLC
[3] = system: KM20L2 colon
[4] = system: DMS 114 small cell lung
[5] = system: M19-MEL melanoma
[6] = system: XF 498 CNS
[7] = system: HOP-18 NSCLC
[8] = system: RXF-631 renal
[9] = system: MDA-N

With N.N.N.N.N.O=[N+]([O-])[O-].[Co+3].[O-][Cl+3]([O-])([O-])[O-] the GI50 [1] was > 100 µM, the TGI [1] was > 100 µM and the GI50 [2] was > 100 µM. The TGI [2] was > 100 µM, the GI50 [3] was > 100 µM and the TGI [3] was > 100 µM.

COC(=O)CC(NC(=O)OCc1ccccc1)C(C(=O)OCc1ccccc1)C(C)(OC)OC (centres undefined) was tested, and the TGI [4] was 91.7 µM, the TGI [5] was > 100 µM and the TGI [1] was > 100 µM. For the same molecule, the TGI [2] was 57.2 µM, the TGI [3] was > 100 µM and the TGI [6] was 37.3 µM.

With CCOC(=O)N1CCc2cc(OC)c(OC)cc2/C1=C\c1ccc(OC)c(OC)c1 the TGI [4] was > 100 µM, the TGI [5] was 63.3 µM and the TGI [1] was 61.9 µM. For the same molecule, the TGI [2] was > 100 µM, the TGI [7] was 90.7 µM and the TGI [3] was 65.4 µM. The TGI [6] was > 10 µM.

CCOC(=O)CCn1ncc(Cl)c(Cl)c1=O gave a TGI [4] of 4.3 µM, a TGI [5] of 8.35 µM and a TGI [1] of 27 µM. For the same molecule, the TGI [2] was 10.5 µM, the TGI [7] was 11.7 µM and the TGI [3] was 31.4 µM. For the same molecule, the TGI [8] was 7.92 µM and the TGI [6] was 37.9 µM.

In the case of c1ccc2c(c1)SCCCSCCSCCCS2, the TGI [9] is reported as > 100 µM.

For CC1CCSC(N(C(=O)N(C)c2ccccc2)c2ccccc2)=N1 (centres undefined), the TGI [4] was > 100 µM, the TGI [5] was > 100 µM and the TGI [1] was > 100 µM. For the same molecule, the TGI [2] was > 100 µM, the TGI [3] was > 100 µM and the TGI [6] was > 100 µM.

For Cc1c(NC(=S)NC(=O)c2ccc([N+](=O)[O-])cc2)c(=O)n(-c2ccccc2)n1C, the TGI [4] was > 100 µM, the TGI [5] was > 100 µM and the TGI [1] was > 100 µM. The TGI [2] was > 100 µM, the TGI [7] was > 100 µM and the TGI [3] was > 100 µM.

COC(=O)C1C(O)C(C)C(O)C(C)C=C(C)C2=C3C(=C(C)C(=O)c4c(O)c(c(C)c(OC(C)=O)c43)NC(=O)C(C)=C/C=C\C(C)C(O)C(C)C1O)OCO2 (centres undefined) was tested, and the TGI [9] was 31.8 µM.

COc1ccc(/C(Cl)=C/c2cc(OC)ccc2OC)cc1 was tested, and the TGI [4] was > 100 µM, the TGI [5] was > 100 µM and the TGI [1] was > 100 µM. The TGI [2] was > 100 µM, the TGI [7] was > 100 µM and the TGI [3] was > 100 µM. The TGI [6] was > 100 µM.

In the case of COc1cc2c(cc1O)CC1c3c(cc(O)c(OC)c3-2)CCN1C (centres undefined), the TGI [9] is reported as > 100 µM.

O=C(Nn1c(-c2ccccc2)nc2ccccc2c1=O)c1ccccc1O was tested, and the TGI [9] was > 100 µM.

For NNC(=O)C(=O)N/N=C1\CCC(=O)CC1C(=O)CCC(=O)Nc1ccc(Cl)cc1 (centres undefined), the TGI [5] was > 100 µM, the TGI [1] was > 100 µM and the TGI [2] was > 100 µM. The TGI [7] was > 100 µM and the TGI [3] was > 100 µM.

For Cc1cc(N(CCC#N)CCC#N)ccc1N=Nc1ccc(Br)cc1, the TGI [4] was > 71.3 µM, the TGI [5] was > 100 µM and the TGI [1] was > 31.6 µM. For the same molecule, the TGI [2] was > 100 µM, the TGI [7] was > 100 µM and the TGI [3] was > 100 µM. It also gave a TGI [8] of 25.1 µM and a TGI [6] of 13.3 µM.

For C1CC2CN(CCCN3CCOCC3)C(C1)O2 (centres undefined), the TGI [9] was > 100 µM.

For CC(C)CCCC(C)[C@H]1CCC2[C@@H]3CCC4Nc5c(cnn5-c5ccccc5)C[C@]4(C)C3CC[C@@]21C (some centres undefined), the TGI [4] was > 100 µM, the TGI [5] was > 100 µM and the TGI [1] was 8.08 µM. The TGI [2] was > 100 µM, the TGI [7] was > 100 µM and the TGI [3] was > 100 µM. The TGI [8] was 38.4 µM and the TGI [6] was > 100 µM.

With Cc1ccc(S(=O)(=O)c2ccccc2[N+](=O)[O-])cc1 the TGI [4] was > 100 µM, the TGI [5] was > 100 µM and the TGI [1] was > 100 µM. For the same molecule, the TGI [2] was > 100 µM, the TGI [3] was > 100 µM and the TGI [8] was > 100 µM. For the same molecule, the TGI [6] was > 100 µM.

COc1ccc(CCc2cc(OC)cc(OC)c2)cc1 was tested, and the TGI [4] was 24.6 µM, the TGI [5] was > 100 µM and the TGI [1] was > 100 µM. For the same molecule, the TGI [2] was > 100 µM, the TGI [7] was > 100 µM and the TGI [3] was > 58 µM. For the same molecule, the TGI [8] was > 72.7 µM and the TGI [6] was 83.8 µM.

With CC(C)(C)C(=CS(=O)/N=C/c1ccccc1)C(C)(C)C (centres undefined) the TGI [4] was 82.1 µM, the TGI [5] was > 100 µM and the TGI [1] was 92 µM. For the same molecule, the TGI [2] was 76.5 µM, the TGI [3] was > 100 µM and the TGI [8] was > 100 µM. The TGI [6] was 89.7 µM.

For C[Si](C)(C)/C=C\CCO, the TGI [4] was > 100 µM, the TGI [5] was > 100 µM and the TGI [1] was > 100 µM. For the same molecule, the TGI [2] was > 100 µM, the TGI [7] was > 100 µM and the TGI [3] was > 100 µM. The TGI [8] was > 100 µM and the TGI [6] was > 100 µM.

For C1CC[N-]CC1.CC(=N\O)/C(C)=N/O.CC(=N\O)/C(C)=N/O.OC1[CH-]CCCC1.[Co+2], the GI50 [9] was 40.9 µM and the TGI [9] was > 100 µM.
